The results in this text go back to article PMC11576293, “New series of 4,6-diaryl pyrimidines: facile synthesis and antiproliferative activity as dual EGFR/VEGFR-2 inhibitors” (Frontiers in Chemistry, 2024).

For orientation: inhibition means the percentage by which the read-out fell short of the control.

For one assay, the system named is SK-MEL-5. Put plainly: NCI-60 single-dose screen. In kind it is cell-based. Conditions: Homo sapiens, single dose 10 µM, '-' = no inhibition, read-out: % Growth Inhibition. In outline:
(§1)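 Compounds tested once at 10 μM across the NCI-60 panel of 60 human cancer cell lines spanning nine tumour types (leukemia, lung, colon, CNS, melanoma, ovarian, renal, prostate, breast), run by the NCI Developmental Therapeutics Program.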
In the case of `COc1ccc(-c2cc(-c3ccc(Cl)cc3)nc(SCc3ccccc3)n2)cc1OC` [Compound 28, 2-(Benzylthio)-4-(4-chlorophenyl)-6-(3,4-dimethoxyphenyl)pyrimidine], the inhibition at 10 µM came out at 30.1%.

The subject of the next assay is HOP-62. In words: NCI-60 single-dose screen. Format: cell-based. Conditions: Homo sapiens, single dose 10 µM, '-' = no inhibition, read-out: % Growth Inhibition. In outline:
as §1
As for `COc1ccc(-c2cc(-c3ccc(Cl)cc3)nc(SCc3ccccc3)n2)cc1OC` [Compound 28, 2-(Benzylthio)-4-(4-chlorophenyl)-6-(3,4-dimethoxyphenyl)pyrimidine], the inhibition at 10 µM was below 0%.

In the next assay the test system is TK-10. Put plainly: NCI-60 single-dose screen. In kind it is cell-based. Conditions: Homo sapiens, single dose 10 µM, '-' = no inhibition, read-out: % Growth Inhibition. Put shortly:
as §1
Regarding `COc1ccc(-c2cc(-c3ccc(Cl)cc3)nc(SCc3ccccc3)n2)cc1OC` [Compound 28, 2-(Benzylthio)-4-(4-chlorophenyl)-6-(3,4-dimethoxyphenyl)pyrimidine], the inhibition at 10 µM was below 0%.

The next assay deals with OVCAR-4. Put plainly: NCI-60 single-dose screen. Format: cell-based. Conditions: Homo sapiens, single dose 10 µM, '-' = no inhibition, read-out: % Growth Inhibition. Put shortly:
as §1
For the compound `COc1ccc(-c2cc(-c3ccc(Cl)cc3)nc(SCc3ccccc3)n2)cc1OC` [Compound 28, 2-(Benzylthio)-4-(4-chlorophenyl)-6-(3,4-dimethoxyphenyl)pyrimidine], the inhibition at 10 µM came to 21.5%.

The next assay has as its system A498. Put plainly: NCI-60 single-dose screen. Format: cell-based. Conditions: Homo sapiens, single dose 10 µM, '-' = no inhibition, read-out: % Growth Inhibition. Put shortly:
as §1
For the compound `COc1ccc(-c2cc(-c3ccc(Cl)cc3)nc(SCc3ccccc3)n2)cc1OC` [Compound 28, 2-(Benzylthio)-4-(4-chlorophenyl)-6-(3,4-dimethoxyphenyl)pyrimidine], the inhibition at 10 µM is 0.85%.

The subject of the next assay is CCRF-CEM. In words: NCI-60 single-dose screen. In kind it is cell-based. Conditions: Homo sapiens, single dose 10 µM, '-' = no inhibition, read-out: % Growth Inhibition. In outline:
as §1
Regarding `COc1ccc(-c2cc(-c3ccc(Cl)cc3)nc(SCc3ccccc3)n2)cc1OC` [Compound 28, 2-(Benzylthio)-4-(4-chlorophenyl)-6-(3,4-dimethoxyphenyl)pyrimidine], the inhibition at 10 µM was 17.4%.

The subject of the next assay is HCC-2998. Put plainly: NCI-60 single-dose screen. Conditions: Homo sapiens, single dose 10 µM, '-' = no inhibition, read-out: % Growth Inhibition. Format: cell-based. In outline: as §1
On to `COc1ccc(-c2cc(-c3ccc(Cl)cc3)nc(SCc3ccccc3)n2)cc1OC` [Compound 28, 2-(Benzylthio)-4-(4-chlorophenyl)-6-(3,4-dimethoxyphenyl)pyrimidine], for which the inhibition at 10 µM was below 0%.

The next assay relates to SF-539. In words: NCI-60 single-dose screen. In kind it is cell-based. As to conditions: Homo sapiens, single dose 10 µM, '-' = no inhibition, read-out: % Growth Inhibition. In outline: as §1
On to `COc1ccc(-c2cc(-c3ccc(Cl)cc3)nc(SCc3ccccc3)n2)cc1OC` [Compound 28, 2-(Benzylthio)-4-(4-chlorophenyl)-6-(3,4-dimethoxyphenyl)pyrimidine], for which the inhibition at 10 µM was determined as 17.8%.

In a further assay the test system is ACHN 1. Put plainly: NCI-60 single-dose screen. In kind it is cell-based. As to conditions: Homo sapiens, single dose 10 µM, '-' = no inhibition, read-out: % Growth Inhibition. In outline:
as §1
Regarding `COc1ccc(-c2cc(-c3ccc(Cl)cc3)nc(SCc3ccccc3)n2)cc1OC` [Compound 28, 2-(Benzylthio)-4-(4-chlorophenyl)-6-(3,4-dimethoxyphenyl)pyrimidine], the inhibition at 10 µM was determined as 13.1%.

The test system of the next assay is T-47D. In words: NCI-60 single-dose screen. As to conditions: Homo sapiens, T47D, single dose 10 µM, '-' = no inhibition, read-out: % Growth Inhibition. In kind it is cell-based. Put shortly: as §1
As to `COc1ccc(-c2cc(-c3ccc(Cl)cc3)nc(SCc3ccccc3)n2)cc1OC` [Compound 28, 2-(Benzylthio)-4-(4-chlorophenyl)-6-(3,4-dimethoxyphenyl)pyrimidine], the inhibition at 10 µM was 33%.

For another assay, the system named is K-562. In words: NCI-60 single-dose screen. In kind it is cell-based. Conditions: Homo sapiens, K562, single dose 10 µM, '-' = no inhibition, read-out: % Growth Inhibition. Put shortly:
as §1
Regarding `COc1ccc(-c2cc(-c3ccc(Cl)cc3)nc(SCc3ccccc3)n2)cc1OC` [Compound 28, 2-(Benzylthio)-4-(4-chlorophenyl)-6-(3,4-dimethoxyphenyl)pyrimidine], the inhibition at 10 µM turned out to be 30.9%.

In the next assay the test system is NCI-H460. In words: NCI-60 single-dose screen. In kind it is cell-based. As to conditions: Homo sapiens, single dose 10 µM, '-' = no inhibition, read-out: % Growth Inhibition. Put shortly:
as §1
As for `COc1ccc(-c2cc(-c3ccc(Cl)cc3)nc(SCc3ccccc3)n2)cc1OC` [Compound 28, 2-(Benzylthio)-4-(4-chlorophenyl)-6-(3,4-dimethoxyphenyl)pyrimidine], the inhibition at 10 µM was determined as 14.8%.

Another assay deals with HT29. In words: NCI-60 single-dose screen. Format: cell-based. As to conditions: Homo sapiens, HT-29, single dose 10 µM, '-' = no inhibition, read-out: % Growth Inhibition. In outline:
as §1
Regarding `COc1ccc(-c2cc(-c3ccc(Cl)cc3)nc(SCc3ccccc3)n2)cc1OC` [Compound 28, 2-(Benzylthio)-4-(4-chlorophenyl)-6-(3,4-dimethoxyphenyl)pyrimidine], the inhibition at 10 µM was 18.7%.

Another assay relates to MCF7. Put plainly: NCI-60 single-dose screen. In kind it is cell-based. As to conditions: Homo sapiens, single dose 10 µM, '-' = no inhibition, read-out: % Growth Inhibition. In outline: as §1
For `COc1ccc(-c2cc(-c3ccc(Cl)cc3)nc(SCc3ccccc3)n2)cc1OC` [Compound 28, 2-(Benzylthio)-4-(4-chlorophenyl)-6-(3,4-dimethoxyphenyl)pyrimidine], the inhibition at 10 µM was 12.9%.

A further assay concerns BT-549. Put plainly: NCI-60 single-dose screen. In kind it is cell-based. As to conditions: Homo sapiens, single dose 10 µM, '-' = no inhibition, read-out: % Growth Inhibition. In outline:
as §1
Turning to `COc1ccc(-c2cc(-c3ccc(Cl)cc3)nc(SCc3ccccc3)n2)cc1OC` [Compound 28, 2-(Benzylthio)-4-(4-chlorophenyl)-6-(3,4-dimethoxyphenyl)pyrimidine], the inhibition at 10 µM turned out to be 3.64%.

In another assay the test system is COLO 205. Put plainly: NCI-60 single-dose screen. In kind it is cell-based. Conditions: Homo sapiens, single dose 10 µM, '-' = no inhibition, read-out: % Growth Inhibition. In outline: as §1
Turning to `COc1ccc(-c2cc(-c3ccc(Cl)cc3)nc(SCc3ccccc3)n2)cc1OC` [Compound 28, 2-(Benzylthio)-4-(4-chlorophenyl)-6-(3,4-dimethoxyphenyl)pyrimidine], the inhibition at 10 µM was 3.49%.

In the next assay the test system is U251. Put plainly: NCI-60 single-dose screen. Conditions: Homo sapiens, U-251, single dose 10 µM, '-' = no inhibition, read-out: % Growth Inhibition. Format: cell-based. Put shortly:
as §1
`COc1ccc(-c2cc(-c3ccc(Cl)cc3)nc(SCc3ccccc3)n2)cc1OC` [Compound 28, 2-(Benzylthio)-4-(4-chlorophenyl)-6-(3,4-dimethoxyphenyl)pyrimidine]: the inhibition at 10 µM amounted to 13.1%.

The subject of the next assay is MALME-3M. In words: NCI-60 single-dose screen. Format: cell-based. As to conditions: Homo sapiens, single dose 10 µM, '-' = no inhibition, read-out: % Growth Inhibition. In outline:
as §1
As to `COc1ccc(-c2cc(-c3ccc(Cl)cc3)nc(SCc3ccccc3)n2)cc1OC` [Compound 28, 2-(Benzylthio)-4-(4-chlorophenyl)-6-(3,4-dimethoxyphenyl)pyrimidine], the inhibition at 10 µM was below 0%.

For the next assay, the system named is NCI-H522. Put plainly: NCI-60 single-dose screen. In kind it is cell-based. Conditions: Homo sapiens, single dose 10 µM, '-' = no inhibition, read-out: % Growth Inhibition. In outline: as §1
As to `COc1ccc(-c2cc(-c3ccc(Cl)cc3)nc(SCc3ccccc3)n2)cc1OC` [Compound 28, 2-(Benzylthio)-4-(4-chlorophenyl)-6-(3,4-dimethoxyphenyl)pyrimidine], the inhibition at 10 µM was found to be 31.8%.

Another assay deals with RXF 393. In words: NCI-60 single-dose screen. Format: cell-based. Conditions: Homo sapiens, single dose 10 µM, '-' = no inhibition, read-out: % Growth Inhibition. In outline: as §1
Turning to `COc1ccc(-c2cc(-c3ccc(Cl)cc3)nc(SCc3ccccc3)n2)cc1OC` [Compound 28, 2-(Benzylthio)-4-(4-chlorophenyl)-6-(3,4-dimethoxyphenyl)pyrimidine], the inhibition at 10 µM was below 0%.

A further assay has as its system SK-MEL-28. Put plainly: NCI-60 single-dose screen. In kind it is cell-based. As to conditions: Homo sapiens, single dose 10 µM, '-' = no inhibition, read-out: % Growth Inhibition. In outline: as §1
As for `COc1ccc(-c2cc(-c3ccc(Cl)cc3)nc(SCc3ccccc3)n2)cc1OC` [Compound 28, 2-(Benzylthio)-4-(4-chlorophenyl)-6-(3,4-dimethoxyphenyl)pyrimidine], the inhibition at 10 µM was 4.01%.

The subject of the next assay is LOX IMVI. In words: NCI-60 single-dose screen. In kind it is cell-based. Conditions: Homo sapiens, single dose 10 µM, '-' = no inhibition, read-out: % Growth Inhibition. In outline: as §1
Turning to `COc1ccc(-c2cc(-c3ccc(Cl)cc3)nc(SCc3ccccc3)n2)cc1OC` [Compound 28, 2-(Benzylthio)-4-(4-chlorophenyl)-6-(3,4-dimethoxyphenyl)pyrimidine], the inhibition at 10 µM stood at 8.32%.

In a further assay the test system is MDA-MB-468. In words: NCI-60 single-dose screen. In kind it is cell-based. As to conditions: Homo sapiens, single dose 10 µM, '-' = no inhibition, read-out: % Growth Inhibition. In outline:
as §1
Consider `COc1ccc(-c2cc(-c3ccc(Cl)cc3)nc(SCc3ccccc3)n2)cc1OC` [Compound 28, 2-(Benzylthio)-4-(4-chlorophenyl)-6-(3,4-dimethoxyphenyl)pyrimidine], for which the inhibition at 10 µM came to 6.53%.
